Activity calls are given as the source filed them. The calls are words filed in the database; no cut-off is given here.
Assays:
[1] = species: Rattus norvegicus; experiment: Induction of mitochondrial membrane potential loss in isolated Wistar rat mitochondria assessed as stationary increase phase rate constant at 25 uM using pyruvate as substrate up to 3 hrs by microcalorimetry (reference value: 1 to 1.18 10^-3/min); assay type: functional
[2] = system: NB-4; experiment: Cytotoxicity against human NB4 cells assessed as reduction in cell viability at 1 to 1.2 uM after 24 hrs in presence of DTT by trypan blue assay; assay type: functional, cell-based
[3] = species: Rattus norvegicus; experiment: Induction of mitochondrial membrane potential loss in isolated Wistar rat mitochondria assessed as maximum power output at 25 uM using pyruvate as substrate up to 3 hrs by microcalorimetry (reference value: 141.64 to 153.92 W); assay type: functional
[4] = system: NB-4; experiment: Induction of mitochondrial membrane potential loss in human NB4 cells at 0.6 uM after 6 hrs by JC1 staining based flow cytometry (reference value: 27.7%); assay type: functional
[5] = species: Rattus norvegicus; experiment: Induction of mitochondrial membrane potential loss in isolated Wistar rat mitochondria assessed as total heat output at 100 uM using pyruvate as substrate up to 3 hrs by microcalorimetry; assay type: functional
[6] = system: NB-4; experiment: Reduction in cell viability in human NB4 cells up to 1.6 uM up to 24 hrs by MTT assay; assay type: functional, cell-based
[7] = system: HeLa; experiment: Cytotoxicity against human HeLa cells after 48 hrs by MTT assay; assay type: functional, cell-based
[8] = system: NB-4; experiment: Induction of cytochrome-c release in human NB4 cells after 24 hrs by ELISA; assay type: functional, cell-based
[9] = species: Rattus norvegicus; experiment: Inhibition of ETC2 in isolated Wistar rat mitochondria assessed as decrease in DCPIP/DB reagent reduction at 5 to 50 uM incubated for 3 to 5 mins and measured for up to 3 mins
[10] = system: NB-4; experiment: Induction of ROS generation in human NB4 cells up to 1.2 uM up to 24 hrs by DHE staining based flow cytometry; assay type: functional, cell-based
[11] = system: NB-4; experiment: Induction of mitochondrial membrane potential loss in human NB4 cells at 0.6 uM after 3 hrs by JC1 staining based flow cytometry (reference value: 27.7%); assay type: functional
[12] = species: Rattus norvegicus; experiment: Induction of mitochondrial membrane potential loss in isolated Wistar rat mitochondria assessed as total heat output at 50 uM using pyruvate as substrate up to 3 hrs by microcalorimetry; assay type: functional
[13] = species: Rattus norvegicus; experiment: Induction of mitochondrial membrane potential loss in isolated Wistar rat mitochondria assessed as activity recovery phase rate constant at 100 uM using pyruvate as substrate up to 3 hrs by microcalorimetry; assay type: functional
[14] = species: Rattus norvegicus; experiment: Inhibition of ETC1 in isolated Wistar rat mitochondria assessed as reduction in NADH oxidation at 6 to 24 uM preincubated for 3 mins and measured after 5 mins by DB reagent based assay
[15] = species: Rattus norvegicus; experiment: Induction of mitochondrial membrane potential loss in isolated Wistar rat mitochondria assessed as maximum power output time at 25 uM using pyruvate as substrate up to 3 hrs by microcalorimetry (reference value: 45.07 to 49.89 hrs); assay type: functional
[16] = species: Rattus norvegicus; experiment: Induction of mitochondrial membrane potential loss in isolated Wistar rat mitochondria assessed as activity recovery phase rate constant at 25 uM using pyruvate as substrate up to 3 hrs by microcalorimetry (reference value: 5.15 to 7.33 10^-3/min); assay type: functional
[17] = system: NB-4; experiment: Cytotoxicity against human NB4 cells assessed as reduction in cell viability up to 2.4 uM up to 8 hrs by MTT assay; assay type: functional, cell-based
[18] = molecular target: T1, Dihydrolipoyllysine-residue acetyltransferase component of pyruvate dehydrogenase complex, mitochondrial (Homo sapiens) (UniProt P10515); experiment: Inhibition of PDHC-E2 activity in human NB4 cells up to 2.4 uM after 3 hrs; assay type: cell-based
T1 sequence (whole entry): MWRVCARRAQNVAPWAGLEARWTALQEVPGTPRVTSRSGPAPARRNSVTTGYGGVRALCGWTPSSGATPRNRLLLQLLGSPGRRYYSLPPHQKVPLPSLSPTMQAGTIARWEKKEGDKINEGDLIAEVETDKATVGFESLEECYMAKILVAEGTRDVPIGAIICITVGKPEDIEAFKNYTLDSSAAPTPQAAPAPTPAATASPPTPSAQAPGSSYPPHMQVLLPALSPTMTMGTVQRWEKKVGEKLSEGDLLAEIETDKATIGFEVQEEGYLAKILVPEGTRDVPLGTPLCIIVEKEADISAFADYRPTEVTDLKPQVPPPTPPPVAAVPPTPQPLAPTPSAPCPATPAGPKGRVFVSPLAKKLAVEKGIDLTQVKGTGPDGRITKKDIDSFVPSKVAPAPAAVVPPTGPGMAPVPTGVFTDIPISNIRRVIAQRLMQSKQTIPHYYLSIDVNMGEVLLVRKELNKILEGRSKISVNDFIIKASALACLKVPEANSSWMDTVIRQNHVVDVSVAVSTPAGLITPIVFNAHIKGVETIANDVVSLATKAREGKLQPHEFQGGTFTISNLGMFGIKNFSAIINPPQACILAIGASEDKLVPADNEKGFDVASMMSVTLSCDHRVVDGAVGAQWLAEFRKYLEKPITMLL

[19] = system: NB-4; experiment: Induction of apoptosis in human NB4 cells assessed as early apoptotic cells after 24 hrs by Annexin V-FITC/propidium iodide staining based flow cytometry (reference value: 5%); assay type: functional
[20] = system: HL-60; experiment: Cytotoxicity against human HL60 cells after 48 hrs by MTT assay; assay type: functional, cell-based; conditions: HL-60, 48 h
[21] = species: Rattus norvegicus; experiment: Induction of mitochondrial membrane potential loss in isolated Wistar rat mitochondria assessed as total heat output at 25 uM using pyruvate as substrate up to 3 hrs by microcalorimetry (reference value: 10.32 to 10.36 J); assay type: functional
[22] = system: SGC-7901; experiment: Cytotoxicity against human SGC7901 cells after 24 hrs by MTT assay; assay type: functional, cell-based; conditions: SGC-7901, 24 h
[23] = species: Rattus norvegicus; experiment: Induction of mitochondrial membrane potential loss in isolated Wistar rat mitochondria assessed as stationary increase phase rate constant at 100 uM using pyruvate as substrate up to 3 hrs by microcalorimetry; assay type: functional
[24] = system: NB-4; experiment: Induction of decrease in intracellular total thiols level in human NB4 cells up to 1.2 uM up to 24 hrs; assay type: functional, cell-based
[25] = system: NB-4; experiment: Induction of mitochondrial membrane potential loss in human NB4 cells at 0.3 to 2.4 uM after 24 hrs by JC-1 staining based confocal microscopic method; assay type: functional, cell-based
[26] = species: Rattus norvegicus; experiment: Induction of mitochondrial membrane potential loss in isolated Wistar rat mitochondria assessed as decline phase rate constant at 25 uM using pyruvate as substrate up to 3 hrs by microcalorimetry (reference value: -24.13 to -20.47 10^-3/min); assay type: functional
[27] = system: HeLa; experiment: Cytotoxicity against human HeLa cells after 24 hrs by MTT assay; assay type: functional, cell-based
[28] = system: NB-4; experiment: Induction of apoptosis in human NB4 cells assessed as early apoptotic cells after 24 hrs in presence of Z-VAD-fmk by Annexin V-FITC/propidium iodide staining based flow cytometry (reference value: 5%); assay type: functional
[29] = system: NB-4; experiment: Induction of apoptosis in human NB4 cells assessed as late apoptotic cells after 24 hrs by Annexin V-FITC/propidium iodide staining based flow cytometry (reference value: 2.9%); assay type: functional
[30] = species: Rattus norvegicus; experiment: Induction of mitochondrial membrane potential loss in isolated Wistar rat mitochondria assessed as activity recovery phase rate constant at 50 uM using pyruvate as substrate up to 3 hrs by microcalorimetry; assay type: functional

O=C(CC[P+](c1ccccc1)(c1ccccc1)c1ccccc1)Nc1ccc([As]2SCCCS2)cc1.[Cl-]
K [1]: 0.72 ×10⁻³ /min | Activity [2]: inactive | Activity [3]: 152 W | Activity [4]: 81.5% | Activity [5]: 11.2 J | Activity [6]: Active | IC50 [7]: 3.91 µM | Activity [8]: Dose-dependent effect | inhibition [9]: inactive | Activity [10]: Active | Activity [11]: 73.9% | Activity [12]: 10.2 J | K [13]: 3.88 ×10⁻³ /min | inhibition [14]: Active | TIME [15]: 45.4 h | K [16]: 3.82 ×10⁻³ /min | Activity [17]: inactive | inhibition [18]: Active | Activity [19]: 13.1% | IC50 [20]: 3.23 µM | Activity [21]: 10.8 J | IC50 [22]: 4.63 µM | K [23]: 0.41 ×10⁻³ /min | Activity [24]: Active | Activity [25]: Active | K [26]: -14.1 ×10⁻³ /min | IC50 [27]: 9.05 µM | Activity [28]: 12.7% | Activity [29]: 16.2% | K [30]: 4.82 ×10⁻³ /min

— ChEMBL document CHEMBL4330144, “A mitochondria-targeted organic arsenical accelerates mitochondrial metabolic disorder and function injury” (Bioorg Med Chem, 2019)
